From ChEMBL document CHEMBL3886492, “Aminopyrimidinones as interleukin receptor-associated kinase inhibitors” (2015)

The molecules below were run against T1, Interleukin-1 receptor-associated kinase 4 (Homo sapiens, UniProt Q9NWZ3) (assay: IMAP technology (Molecular Devices): A 20 ul reaction mixture contains 10 mM TriHCl, pH 7.2, 0.5 nM GST tagged IRAK4 (SignalChem), 100 nM fluorescent peptide substrate (RP7030, Molecular Devices), 100 uM ATP, 1 mM DTT, 1 mM MgCl2, and 0.01% Tween 20. The reaction is initiated by the addition of ATP. After incubation for 30 minutes at 25° C., 60 ul of Progressive IMAP Reagent (Molecular Devices) is added to stop the reaction. Change in RP7030's FP is determined by a FP reader (Analyst HT, LJL BioSystems).).
T1 sequence (Q9NWZ3 whole entry): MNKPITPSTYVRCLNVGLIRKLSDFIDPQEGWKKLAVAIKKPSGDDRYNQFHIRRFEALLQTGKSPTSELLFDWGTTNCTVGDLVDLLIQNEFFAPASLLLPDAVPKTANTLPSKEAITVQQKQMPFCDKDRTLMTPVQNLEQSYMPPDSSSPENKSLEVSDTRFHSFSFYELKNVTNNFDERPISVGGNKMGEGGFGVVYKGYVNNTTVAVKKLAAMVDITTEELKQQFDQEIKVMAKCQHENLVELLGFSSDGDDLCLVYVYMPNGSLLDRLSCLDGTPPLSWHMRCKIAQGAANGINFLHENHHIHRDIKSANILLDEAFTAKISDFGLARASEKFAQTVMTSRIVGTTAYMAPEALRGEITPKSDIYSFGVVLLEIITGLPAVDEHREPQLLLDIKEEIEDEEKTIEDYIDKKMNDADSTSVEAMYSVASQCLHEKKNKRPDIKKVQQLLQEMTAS

Compound	IC50
O=c1[nH]c(N2CCc3ccccc3C2)nc(N[C@@H]2C[C@H](CO)[C@@H](O)[C@H]2O)c1-c1nc2ccccc2s1	27.5 nM
CC1(Nc2nc(N3CCOCC3)[nH]c(=O)c2-c2ccc3ccccc3n2)CCCNC1 (stereo unspecified)	130 nM
COC(=O)N1CCC(c2nc(N[C@@H]3CCCNC3)c(-c3nc4ccccc4s3)c(=O)[nH]2)CC1	270 nM
O=c1[nH]c(N2CCc3ccccc3C2)nc(N[C@@H]2CCCNC2)c1-c1nc(-c2ccc(F)cc2)cs1	57 nM
Cc1csc(-c2c(N[C@@H]3CCCNC3)nc(N3CCOCC3)[nH]c2=O)n1	554 nM
CN1CCC(c2nc(N[C@@H]3CCCNC3)c(-c3nc4ccccc4s3)c(=O)[nH]2)CC1	690 nM
CC1(Nc2nc(N[C@@H]3C[C@H](CO)[C@@H](O)[C@H]3O)c(-c3nc4ccccc4s3)c(=O)[nH]2)CCC1	1690 nM
Nc1ccc2c(c1)CN(c1nc(N[C@@H]3CCCNC3)c(-c3nc4ccccc4s3)c(=O)[nH]1)CC2	49 nM
CS(=O)(=O)N1CCN(c2nc(N[C@@H]3CCCNC3)c(-c3nc4c(C5CC5)nccc4s3)c(=O)[nH]2)CC1	6.9 nM
Cc1cccc(-c2c(N[C@@H]3C[C@H](CO)[C@@H](O)[C@H]3O)nc(N3CCOCC3)[nH]c2=O)n1	214 nM
O=c1[nH]c(C2CCOCC2)nc(N[C@@H]2CCCNC2)c1-c1nc2ccccc2s1	380 nM
CC(C)(C)OC(=O)N1CC2(CCN(c3nc(N[C@@H]4CCCNC4)c(-c4nc5ccccc5s4)c(=O)[nH]3)CC2)C1	27 nM
CC(=O)N1CCC(c2nc(N[C@@H]3CCCNC3)c(-c3nc4ccccc4s3)c(=O)[nH]2)CC1	450 nM
N[C@H]1CCCC[C@H]1Nc1cccc2sc(-c3c(N[C@@H]4CCCNC4)nc(N4CCOCC4)[nH]c3=O)nc12	2 nM
O=c1[nH]c(N2CCC3(CC2)CNC3)nc(N[C@@H]2CCCNC2)c1-c1nc2ccccc2s1	40 nM
N[C@H]1CCCC[C@H]1Nc1cccc2sc(-c3c(N[C@@H]4CCCNC4)nc(N4CCOCC4)[nH]c3=O)nc12 (racemic)	70 nM
